According to US20110144079A1, “ANTIMICROBIAL SYSTEM” (priority 2008, published 2011):
Like-named read-outs stand apart in the source and are kept apart here.

How the values were obtained:
S. aureus PIII [1] = test: Broth microdilution MIC; type: cell-based
Description: (§1) Broth microdilution tests were performed according to NCCLS guidelines. Serial two-fold dilutions of each imidazolium salt (from an original working solution which had been 0.22 μm sterile filtered) in Mueller-Hinton Broth (MHB) (100 μl) were prepared in 96-well micro-titre plates over the range 0.0000625-1% w/v. The inoculum to be tested was prepared by adjusting the turbidity of an actively overnight growing broth culture in MHB to an optical density at 550 nm equivalent to 1×10^8 CFU/ml. The suspension was further diluted to provide a final inoculum density of 2×10^5 CFU/ml in MHB as verified by total viable count. The inoculum to be tested (100 μl, 2×10^5 CFU ml^−1) was added to each well of the microdilution trays which were incubated aerobically for 24 h at 37° C. Positive and negative growth controls were included in every assay (6 replicates). After determining the MICs, minimum bactericidal concentrations (MBCs) were determined by spreading 20 μl of suspension from wells showing no growth onto MHA plates, which were then incubated for 24 h and examined for 99.9% killing.

S. aureus PIII [2] = test: Biofilm assay (Calgary Biofilm Device), MBEC; type: cell-based; conditions: S. aureus PIII 24 h biofilm, 24 h challenge
Description: (§2) Biofilms of each test organism were grown in the Calgary Biofilm Device (commercially available as the MBEC Assay™ for Physiology & Genetics, Innovotech Inc., Edmonton, Alberta, Canada). The device, a micro-titre plated based assay, consists of two parts; a microtitre plate containing the inoculated test medium and a polystyrene lid with 96 identical pegs on which the microbial biofilm forms under gyrorotary incubation. The biofilm assay was conducted according to the MBEC™ assay protocol as supplied by the manufacturer, with slight modifications. Inocula of each test organism were prepared in MHB as described above and adjusted to provide a final inoculum density of ˜10^7 CFU ml^−1 (as confirmed by viable count). 150 μl of the inoculated media was transferred to each well of the 96-well microtitre plate and the assay plate lid, bearing 96 pegs was placed into the microtitre plate. The MBEC assay plates were placed in a gyrorotary incubator (37° C., 95% relative humidity) for 24 h to permit growth and comparison of 24 h biofilms of each test strain. Positive and negative growth controls were included in each plate (6 replicates). Initial and 24 h planktonic viable counts were measured, as were 24 h biofilm counts, expressed as CFU peg^−1, according to manufacturers instructions. After 24 h, the peg lid of the MBEC assay plate was gently rinsed three times. After rinsing, the peg lid of the MBEC assay was transferred to a ‘challenge’ plate. Serial dilutions of each imidazolium salt were prepared in 200 μl of MHB containing various concentrations of IL in each well. Positive growth control and sterility control were included in each assay plate. […] Biofilms were dislodged into recovery media by sonication for 5 minutes and the peg lid discarded. The recovery plate is incubated overnight and visually checked after 24 h for turbidity. In addition, optical density measurements for each plate were recorded at 550 nm. Clear wells were taken as evidence of biofilm eradication and the MBEC value was assigned as the lowest concentration at which no growth was observed after 24 h incubation. Plates were incubated for a further 24 h to confirm biofilm eradication concentrations.

E-MRSA 15 [3] = test: Biofilm assay (Calgary Biofilm Device), MBEC; type: cell-based; conditions: E-MRSA 15 24 h biofilm, 24 h challenge
Description: as §2

[4] = test system: S. epidermidis ATCC 35984; test: Biofilm assay (Calgary Biofilm Device), MBEC; type: cell-based; conditions: for MBEC: S. epidermidis ATCC 35984 24 h biofilm, 24 h challenge
Description: as §2

B. cereus [5] = test: Biofilm assay (Calgary Biofilm Device), MBEC; type: cell-based; conditions: B. cereus 24 h biofilm, 24 h challenge
Description: as §2

P. mirabilis NCTC 12442 [6] = test: Biofilm assay (Calgary Biofilm Device), MBEC; type: cell-based; conditions: P. mirabilis NCTC 12442 24 h biofilm, 24 h challenge
Description: as §2

K. aerogenes NCTC 7427 [7] = test: Biofilm assay (Calgary Biofilm Device), MBEC; type: cell-based; conditions: K. aerogenes NCTC 7427 24 h biofilm, 24 h challenge
Description: as §2

E. coli NCTC 8196 [8] = test: Biofilm assay (Calgary Biofilm Device), MBEC; type: cell-based; conditions: E. coli NCTC 8196 24 h biofilm, 24 h challenge
Description: as §2

C. tropicalis NCTC 7393 [9] = test: Biofilm assay (Calgary Biofilm Device), MBEC; type: cell-based; conditions: C. tropicalis NCTC 7393 24 h biofilm, 24 h challenge
Description: as §2

P. aeruginosa PA01 [10] = test: Biofilm assay (Calgary Biofilm Device), MBEC; type: cell-based; conditions: P. aeruginosa PA01 24 h biofilm, 24 h challenge
Description: as §2

E-MRSA 15 [11] = test: Broth microdilution MIC/MBC; type: cell-based; conditions: for MBC: E-MRSA 15, 99.9% killing; for MIC: E-MRSA 15, 24 h at 37° C.
Description: as §1

[12] = test system: S. epidermidis ATCC 35984; test: Broth microdilution MIC/MBC; type: cell-based; conditions: for MBC: S. epidermidis ATCC 35984, 99.9% killing; for MIC: S. epidermidis ATCC 35984, 24 h at 37° C.
Description: as §1

B. cereus [13] = test: Broth microdilution MIC/MBC; type: cell-based; conditions: 24 h at 37° C.
Description: as §1

P. mirabilis NCTC 12442 [14] = test: Broth microdilution MIC/MBC; type: cell-based; conditions: for MIC: P. mirabilis NCTC 12442, 24 h at 37° C.
Description: as §1

K. aerogenes NCTC 7427 [15] = test: Broth microdilution MIC/MBC; type: cell-based; conditions: for MBC: K. aerogenes NCTC 7427, 99.9% killing; for MIC: K. aerogenes NCTC 7427, 24 h at 37° C.
Description: as §1

E. coli NCTC 8196 [16] = test: Broth microdilution MIC/MBC; type: cell-based; conditions: for MBC: E. coli NCTC 8196, 99.9% killing; for MIC: E. coli NCTC 8196, 24 h at 37° C.
Description: as §1

C. tropicalis NCTC 7393 [17] = test: Broth microdilution MIC/MBC; type: cell-based; conditions: for MBC: C. tropicalis NCTC 7393, 99.9% killing; for MIC: C. tropicalis NCTC 7393, 24 h at 37° C.
Description: as §1

S. aureus ATCC 29213 [18] = test: Broth microdilution MIC/MBC; type: cell-based; conditions: for MBC: S. aureus ATCC 29213, 99.9% killing; for MIC: S. aureus ATCC 29213, 24 h at 37° C.
Description: as §1

[19] = test system: S. epidermidis ATCC 12228; test: Broth microdilution MIC/MBC; type: cell-based; conditions: for MBC: S. epidermidis ATCC 12228, 99.9% killing; for MIC: S. epidermidis ATCC 12228, 24 h at 37° C.
Description: as §1

P. aeruginosa PA01 [20] = test: Broth microdilution MIC/MBC; type: cell-based; conditions: for MIC: P. aeruginosa PA01, 24 h at 37° C., read-out: MIC
Description: as §1

MRSA [21] = test: Biofilm assay (Calgary Biofilm Device), MBEC; type: cell-based, methicillin-resistant S. aureus
Description: as §2

MRSA [22] = test: Broth microdilution MIC/MBC; type: cell-based, methicillin-resistant S. aureus; conditions: for MIC: 24 h at 37° C.
Description: as §1

E. coli PIII [23] = test: Broth microdilution MIC; type: cell-based
Description: as §1

E. coli PIII [24] = test: Biofilm assay (Calgary Biofilm Device), MBEC; type: cell-based; conditions: E. coli PIII 24 h biofilm, 24 h challenge
Description: as §2

B. cenocepacia J2315 [25] = test: Biofilm assay (Calgary Biofilm Device), MBEC; type: cell-based; conditions: B. cenocepacia J2315 24 h biofilm, 24 h challenge
Description: as §2

S. aureus ATCC 29213 [26] = test: Biofilm assay (Calgary Biofilm Device), MBEC; type: cell-based; conditions: S. aureus ATCC 29213 24 h biofilm, 24 h challenge
Description: as §2

B. cenocepacia J2315 [27] = test: Broth microdilution MIC/MBC; type: cell-based
Description: as §1

MRSA [28] = test: Zone of inhibition on MRSA-seeded agar culture plates; type: cell-based, methicillin-resistant S. aureus; conditions: 40 μL of ionic liquid applied to MRSA-seeded agar culture plates
Text: As used herein, CyMIMCI, refers to 1-alkyl-3-methyl-imidazolium chloride ionic liquids, wherein the alkyl group is a straight chain alkyl group having y carbon atoms.

[29] = test system: S. epidermidis ATCC 12228; test: Biofilm assay (Calgary Biofilm Device), MBEC; type: cell-based
Description: as §2

[30] = Staphylococcus epidermidis, ATCC12228
[31] = Pseudomonas aeruginosa, PA01, 24 h

MIC (E-MRSA 15 [11]) [µM]	MIC [12] [µM]	MIC (P. mirabilis NCTC 12442 [14]) [µM]	MIC (K. aerogenes NCTC 7427 [15]) [µM]	MIC (E. coli NCTC 8196 [16]) [µM]	MIC (C. tropicalis NCTC 7393 [17]) [µM]	MIC (S. aureus ATCC 29213 [18]) [µM]	SMILES	MBEC (E-MRSA 15 [3]) [µM]	MBEC [4] [µM]	MBEC (B. cereus [5]) [µM]	MBEC (P. mirabilis NCTC 12442 [6]) [µM]	MBEC (K. aerogenes NCTC 7427 [7]) [µM]	MBEC (C. tropicalis NCTC 7393 [9]) [µM]	MBEC (P. aeruginosa PA01 [10]) [µM]	MBC (E-MRSA 15 [11]) [µM]	MBC [12] [µM]	MBC (K. aerogenes NCTC 7427 [15]) [µM]	MBC (E. coli NCTC 8196 [16]) [µM]	MBC (C. tropicalis NCTC 7393 [17]) [µM]	MBC (S. aureus ATCC 29213 [18]) [µM]	also measured
35.12	35.12	70.24	35.12	35.12	35.12	70.24	CCCCCCCCCCCCCCCC[n+]1cccc2ccccc21.[Br-] [1-alkyl-3-quinolinium bromides 16]	1123.84	561.92	1123.84	2247.68	561.92	561.92	1123.84	70.24	35.12	35.12	70.24	70.24	70.24	MIC (S. aureus PIII [1]): 70.24 µM; MBEC (S. aureus PIII [2]): 1123.84 µM; MBEC (E. coli NCTC 8196 [8]): 561.92 µM; MIC (B. cereus [13]): 140.48 µM; MBC [19]: 35.12 µM; MIC [19]: 35.12 µM; MIC (P. aeruginosa PA01 [20]): 70.24 µM
722	722	1444	1444	722	1444	722	CCCCCCCCn1cc[n+](C)c1.[Cl-] [C8MIMCl]	2708	10833		43331	43331	>43331	21666	>1444	1444	>1444	1444	>1444	>1444	MBEC (MRSA [21]; MRSA 24 h biofilm, 24 h challenge): 21666 µM; percent weight to volume of ionic liquid that corresponds to the MBEC value (MRSA [21]; MRSA biofilm): (0.5) % w/v; MBC (MRSA [22]; 99.9% killing): >1444 µM; MIC (MRSA [22]): 1444 µM; MIC (E. coli PIII [23]): 722 µM; MBEC (E. coli PIII [24]): 21666 µM; percent weight to volume of ionic liquid that corresponds to the MBEC value ([4]; S. epidermidis ATCC 35984 biofilm): (0.25) % w/v; MBEC (B. cenocepacia J2315 [25]): 43331 µM; MBEC (S. aureus ATCC 29213 [26]): 2708 µM; MBC (P. mirabilis NCTC 12442 [14]; P. mirabilis NCTC 12442, 99.9% killing): >1444 µM; MBC (B. cenocepacia J2315 [27]; B. cenocepacia J2315, 99.9% killing): >1444 µM; MIC (B. cenocepacia J2315 [27]; B. cenocepacia J2315, 24 h at 37° C.): >1444 µM; MBC [19]: 1444 µM; MIC [19]: 361 µM; MBC (P. aeruginosa PA01 [20]; P. aeruginosa PA01, 99.9% killing): >1444 µM; Zone Of Inhibition Radius (MRSA [28]): 12 mm
							CCCCCCCCCCCCCC[n+]1cccc2cc(C)ccc21.[Br-] [IL3, N-tetradecyl-6-methylquinolinium bromide]														MIC (MRSA [22]; Staphylococcus aureus): 23.2 µM; MBEC [29]: 8.2 µM; MIC (B. cereus [13]; Bacillus cereus): 2.9 µM; MIC (P. mirabilis NCTC 12442 [14]; Proteus mirabilis, NCTC12442): 92.9 µM; MIC (E. coli NCTC 8196 [16]; Escherichia coli, NCTC8196): 11.6 µM; MIC [19, 30]: 8.2 µM; MIC (P. aeruginosa PA01 [20]; [31]): 23.2 µM
							CCCCCCCCCCCCCC[n+]1ccc2ccccc2c1.[Br-] [IL4, N-tetradecylisoquinolinium bromide]		31.5	7.9		63.4									MIC (MRSA [22]; Staphylococcus aureus): 24.1 µM; MBEC (S. aureus ATCC 29213 [26]): 126.9 µM; MBEC [29]: 31.7 µM; MIC ([12]; Staphylococcus epidermidis, ATCC35984, 24 h): 7.9 µM; MIC (B. cereus [13]; Bacillus cereus): 3 µM; MIC (P. mirabilis NCTC 12442 [14]; Proteus mirabilis, NCTC12442): 193 µM; MIC (K. aerogenes NCTC 7427 [15]; Klebsiella aerogenes, NCTC7427): 7.9 µM; MIC (E. coli NCTC 8196 [16]; Escherichia coli, NCTC8196): 24.1 µM; MIC (S. aureus ATCC 29213 [18]; Staphylococcus aureus, ATCC29213): 7.9 µM; MIC [19, 30]: 7.9 µM; MIC (P. aeruginosa PA01 [20]; [31]): 48.2 µM
